Experimental data as given in ChEMBL document CHEMBL3621059, “Discovery of 4-Aryl-5,6,7,8-tetrahydroisoquinolines as Potent, Selective, and Orally Active Aldosterone Synthase (CYP11B2) Inhibitors: In Vivo Evaluation in Rodents and Cynomolgus Monkeys” (J Med Chem, 2015).
In brackets after ≈: the same amount, converted by molar mass. Activity calls are given as the source filed them. No cut-off for these calls is given here.

How the values were obtained:
[1] = molecular target: T1, Cytochrome P450 11B2, mitochondrial (Homo sapiens, UniProt P19099)
T1 sequence (P19099 whole entry): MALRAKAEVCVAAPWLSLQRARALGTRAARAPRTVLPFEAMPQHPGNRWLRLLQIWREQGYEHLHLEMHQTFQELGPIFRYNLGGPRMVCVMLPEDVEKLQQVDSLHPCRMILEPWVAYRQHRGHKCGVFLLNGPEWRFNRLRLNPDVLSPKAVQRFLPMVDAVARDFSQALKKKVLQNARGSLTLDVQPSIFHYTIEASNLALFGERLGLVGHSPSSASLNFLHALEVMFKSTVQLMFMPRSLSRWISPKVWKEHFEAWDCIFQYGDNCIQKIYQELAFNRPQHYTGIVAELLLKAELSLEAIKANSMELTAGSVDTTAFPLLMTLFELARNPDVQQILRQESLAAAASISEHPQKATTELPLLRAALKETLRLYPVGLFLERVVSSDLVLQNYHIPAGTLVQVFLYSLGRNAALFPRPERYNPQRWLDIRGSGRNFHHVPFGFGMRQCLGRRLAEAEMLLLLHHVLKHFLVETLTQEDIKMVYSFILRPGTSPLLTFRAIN
Description: Inhibition of human CYP11B2 expressed in human renal leiomyoblastoma cells using 11-deoxycorticosterone as substrate assessed as formation of aldosterone after 16 hrs by HTRF assay

[2] = human, microsomes
Description: Clearance in human microsomes assessed per mg of protein

[3] = mouse, microsomes
Description: Clearance in mouse microsomes assessed per mg of protein

[4] = rat, microsomes
Description: Clearance in rat microsomes assessed per mg of protein

[5] = molecular target: T2, Cytochrome P450 11B2, mitochondrial (Rattus norvegicus, UniProt P30099); assay: Inhibition of rat CYP11B2 expressed in renal leiomyoblastoma cells at 500 nM relative to control; format: cell-based
T2 sequence (P30099 whole entry): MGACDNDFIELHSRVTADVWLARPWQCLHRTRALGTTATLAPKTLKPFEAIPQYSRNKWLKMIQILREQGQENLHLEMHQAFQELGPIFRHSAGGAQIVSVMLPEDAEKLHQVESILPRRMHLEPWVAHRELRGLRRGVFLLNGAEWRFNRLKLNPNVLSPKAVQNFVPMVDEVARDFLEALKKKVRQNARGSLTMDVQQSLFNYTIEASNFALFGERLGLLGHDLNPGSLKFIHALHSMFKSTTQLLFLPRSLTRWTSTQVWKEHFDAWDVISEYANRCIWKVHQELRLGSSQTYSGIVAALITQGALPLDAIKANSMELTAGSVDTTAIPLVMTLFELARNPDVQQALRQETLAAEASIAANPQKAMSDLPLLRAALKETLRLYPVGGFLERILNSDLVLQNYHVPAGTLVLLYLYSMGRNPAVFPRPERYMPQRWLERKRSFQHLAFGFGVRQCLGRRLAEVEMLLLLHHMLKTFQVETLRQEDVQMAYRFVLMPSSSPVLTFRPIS

Rattus norvegicus [6] = organism: Rattus norvegicus; assay: Reduction of aldosterone level in angiotension-2 ZSF1 rat infusion model; format: functional, organism-based
Rattus norvegicus [7] = organism: Rattus norvegicus; assay: Induction of improvement in glomerular filtration rate in angiotension-2 ZSF1 rat infusion model; format: functional, organism-based
Rattus norvegicus [8] = organism: Rattus norvegicus; assay: Induction of improvement in renal histology in angiotension-2 ZSF1 rat infusion model; format: functional, organism-based
Cytochrome P450 3A4 = Cytochrome P450 3A4 (Homo sapiens, UniProt P08684)
Chain of Cytochrome P450 3A4 (P08684 whole entry): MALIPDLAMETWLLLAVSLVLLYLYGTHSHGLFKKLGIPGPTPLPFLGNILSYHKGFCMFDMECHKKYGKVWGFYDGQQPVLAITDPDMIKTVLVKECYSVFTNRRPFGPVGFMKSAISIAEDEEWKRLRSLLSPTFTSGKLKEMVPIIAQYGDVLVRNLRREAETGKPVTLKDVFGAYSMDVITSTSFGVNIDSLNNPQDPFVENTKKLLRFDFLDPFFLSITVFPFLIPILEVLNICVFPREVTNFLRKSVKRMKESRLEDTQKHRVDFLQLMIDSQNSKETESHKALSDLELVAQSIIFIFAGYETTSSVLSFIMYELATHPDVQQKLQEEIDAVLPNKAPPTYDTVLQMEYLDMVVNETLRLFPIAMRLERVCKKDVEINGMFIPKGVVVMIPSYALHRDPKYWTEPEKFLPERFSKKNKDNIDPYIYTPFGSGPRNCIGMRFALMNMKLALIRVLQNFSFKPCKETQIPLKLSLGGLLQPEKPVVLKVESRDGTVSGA
Description: Inhibition of CYP3A4 (unknown origin)

Cytochrome P450 2D6 = Cytochrome P450 2D6 (Homo sapiens, UniProt P10635)
Chain of Cytochrome P450 2D6 (P10635 whole entry): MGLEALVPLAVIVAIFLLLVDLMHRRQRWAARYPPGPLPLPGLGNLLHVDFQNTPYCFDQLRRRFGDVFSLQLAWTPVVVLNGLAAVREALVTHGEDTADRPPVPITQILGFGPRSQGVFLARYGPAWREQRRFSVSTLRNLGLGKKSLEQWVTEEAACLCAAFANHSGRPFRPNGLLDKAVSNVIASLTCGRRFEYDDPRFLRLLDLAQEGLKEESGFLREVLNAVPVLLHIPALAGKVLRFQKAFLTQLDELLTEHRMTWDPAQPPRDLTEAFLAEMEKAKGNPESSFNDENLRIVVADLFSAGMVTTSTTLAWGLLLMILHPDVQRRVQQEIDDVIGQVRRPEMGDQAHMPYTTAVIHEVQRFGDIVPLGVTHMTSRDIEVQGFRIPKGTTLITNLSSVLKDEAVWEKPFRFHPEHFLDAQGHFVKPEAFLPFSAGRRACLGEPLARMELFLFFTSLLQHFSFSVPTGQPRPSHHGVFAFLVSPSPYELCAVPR
Description: Inhibition of CYP2D6 (unknown origin)

Cytochrome P450 2C9 = Cytochrome P450 2C9 (Homo sapiens, UniProt P11712)
Chain of Cytochrome P450 2C9 (P11712 whole entry): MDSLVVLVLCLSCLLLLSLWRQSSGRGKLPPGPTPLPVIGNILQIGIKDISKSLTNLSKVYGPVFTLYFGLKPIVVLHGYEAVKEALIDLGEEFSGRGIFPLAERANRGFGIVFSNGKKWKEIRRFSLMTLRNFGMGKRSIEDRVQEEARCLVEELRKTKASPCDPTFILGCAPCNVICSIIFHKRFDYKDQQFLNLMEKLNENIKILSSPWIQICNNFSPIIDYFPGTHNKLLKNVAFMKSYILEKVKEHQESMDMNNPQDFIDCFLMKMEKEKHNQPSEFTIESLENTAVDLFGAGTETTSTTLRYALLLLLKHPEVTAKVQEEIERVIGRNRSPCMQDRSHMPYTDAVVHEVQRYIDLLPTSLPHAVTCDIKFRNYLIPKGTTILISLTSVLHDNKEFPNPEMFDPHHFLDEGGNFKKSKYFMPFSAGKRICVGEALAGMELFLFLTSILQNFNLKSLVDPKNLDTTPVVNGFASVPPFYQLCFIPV
Description: Inhibition of CYP2C9 (unknown origin)

physchem [9] = conditions: PAMPA
Description: Permeability of the compound by PAMPA

physchem [10] = conditions: 1-octanol/TAPSO buffer, pH 7.4
physchem [11] = conditions: phosphate buffer, pH 6.5
Description: Aqueous solubility of the compound in phosphate buffer at pH 6.5 by LYSA method

[12] = molecular target: T3, Cytochrome P450 11B2, mitochondrial (Mus musculus, UniProt P15539)
T3 sequence (P15539 whole entry): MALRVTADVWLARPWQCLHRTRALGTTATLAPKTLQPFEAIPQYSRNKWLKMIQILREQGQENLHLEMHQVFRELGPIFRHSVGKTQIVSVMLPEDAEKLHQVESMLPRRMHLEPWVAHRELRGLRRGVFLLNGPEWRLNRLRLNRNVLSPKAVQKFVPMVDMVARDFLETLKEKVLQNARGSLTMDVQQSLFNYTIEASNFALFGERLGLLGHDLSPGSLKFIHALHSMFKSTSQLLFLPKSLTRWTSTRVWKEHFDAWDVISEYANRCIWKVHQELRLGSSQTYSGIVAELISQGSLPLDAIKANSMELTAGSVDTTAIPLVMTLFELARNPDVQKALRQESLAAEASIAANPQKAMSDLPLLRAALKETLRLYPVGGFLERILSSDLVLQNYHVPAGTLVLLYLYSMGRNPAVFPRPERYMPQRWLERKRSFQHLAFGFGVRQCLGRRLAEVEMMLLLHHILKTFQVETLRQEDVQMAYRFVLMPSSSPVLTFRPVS
Description: Inhibition of mouse CYP11B2 expressed in renal leiomyoblastoma cells

SMILES | IC50 [1] | CL [2] | CL [3] | CL [4] | inhibition at 0.5 µM [5] | IC50 (Cytochrome P450 3A4) | IC50 (Cytochrome P450 2D6) | IC50 (Cytochrome P450 2C9) | Papp (physchem [9]) | logD (physchem [10]) | solubility (physchem [11]) | IC50 [12] | Activity (Rattus norvegicus [6]) | Activity (Rattus norvegicus [7]) | Activity (Rattus norvegicus [8])
N#Cc1ccc(-c2cccnc2)cc1 | 0.04 µM | < 10 µg/min | 53 µg/min | < 10 µg/min | – | – | – | – | – | – | – | – | – | – | –
O=C1CCc2cc(-c3cncc4ccccc34)ccc2N1 | – | – | – | – | 65% | – | – | – | – | – | – | – | – | – | –
COC(=O)[C@@H]1CC2=CC(=O)CC[C@]2(C)[C@@]23O[C@@H]2C[C@@]2(C)[C@@H](CC[C@@]24CCC(=O)O4)[C@H]13 | – | – | – | – | – | – | – | – | – | – | – | – | Active | Active | Active
CCC(=O)NC1CCCc2c(-c3ccc(F)c(F)c3)cncc21 (racemic) | 0.047 µM | < 10 µg/min | 17 µg/min | 85 µg/min | – | – | – | – | > 4 ×10⁻⁶ cm/s | 3 | 310 µg/mL (≈ 980 µM) | – | – | – | –
CCC(=O)NC1CCCc2c(-c3cc(F)c(F)cc3F)cncc21 (racemic) | 0.027 µM | < 10 µg/min | < 10 µg/min | 78 µg/min | – | – | – | – | > 4 ×10⁻⁶ cm/s | 3.1 | 239 µg/mL (≈ 715 µM) | – | – | – | –
CCC(=O)NC1CCCc2c(-c3ccc(Cl)cc3F)cncc21 (racemic) | 0.028 µM | < 10 µg/min | 21 µg/min | 46 µg/min | – | – | – | – | > 4 ×10⁻⁶ cm/s | 3.6 | 129 µg/mL (≈ 388 µM) | – | – | – | –
N#Cc1ccc([C@H]2CCc3cncn32)c(F)c1 [OSILODROSTAT] | – | – | – | – | – | – | – | – | – | – | – | 0.21 µM | – | – | –

More lines, main results first:

IC50 [1] | CL [2] | CL [3] | CL [4] | inhibition at 0.5 µM [5] | IC50 (Cytochrome P450 3A4) | IC50 (Cytochrome P450 2D6) | IC50 (Cytochrome P450 2C9) | Papp (physchem [9]) | logD (physchem [10]) | solubility (physchem [11]) | IC50 [12] | SMILES | Activity (Rattus norvegicus [6]) | Activity (Rattus norvegicus [7]) | Activity (Rattus norvegicus [8])
0.042 µM | < 10 µg/min | 12 µg/min | < 10 µg/min | – | – | – | – | – | – | – | – | N#Cc1ccc(-c2cncc3c2CCCC3N)cc1 (racemic) | – | – | –
0.021 µM | < 10 µg/min | < 10 µg/min | < 10 µg/min | – | > 50 µM | > 50 µM | > 50 µM | > 4.4 ×10⁻⁶ cm/s | 1.8 | 415 µg/mL (≈ 1420 µM) | – | CC(=O)NC1CCCc2c(-c3ccc(C#N)cc3)cncc21 (racemic) | – | – | –
– | < 10 µg/min | < 10 µg/min | < 10 µg/min | – | > 50 µM | > 50 µM | > 50 µM | > 4.4 ×10⁻⁶ cm/s | 2.6 | 90 µg/mL (≈ 282 µM) | – | CC(C)C(=O)NC1CCCc2c(-c3ccc(C#N)cc3)cncc21 (racemic) | – | – | –
0.014 µM | < 10 µg/min | 36 µg/min | 31 µg/min | – | – | – | – | > 4 ×10⁻⁶ cm/s | 3.6 | 99 µg/mL (≈ 297 µM) | – | CCC(=O)NC1CCCc2c(-c3ccc(Cl)c(F)c3)cncc21 (racemic) | – | – | –
